Activity and zone of inhibition data for two molecules are collected here from ChEMBL document CHEMBL1144091, “Isolation of two highly methylated polyketide derivatives from a yew-associated penicillium species” (J Nat Prod, 1999).

In one data set the test system is Aspergillus niger. Briefly: Antifungal activity against Aspergillus niger at 500 ug/disk. Type of data set: functional, organism-based.
The next data set has as its system Candida albicans. Kind of data set: Antifungal activity against Candida albicans at 500 ug/disk. Type of data set: functional, organism-based.
Another data set relates to Fusarium oxysporum. Kind of data set: Antifungal activity against Fusarium oxysporum at 500 ug/disk. Type of data set: functional, organism-based.
A further data set deals with Helminthosporium. Briefly: Antifungal activity against Helminthosporium sativum at 500 ug/disk. It counts as functional, organism-based.
In the next data set the test system is Aspergillus flavus. Kind of data set: Antifungal activity against Aspergillus flavus at 500 ug/disk. Type of data set: functional, organism-based.
A further data set relates to Artemia. Briefly: Toxicity against brine shrimp at 500 ug/mL. Type of data set: organism-based. Conditions: in vivo.
The test system of the next data set is Geotrichum candidum. Briefly: Antifungal activity against Geotrichum candidum at 500 ug/disk. Type of data set: functional, organism-based.
In data set [1] the test system is Sclerotinia sclerotiorum. Briefly: Antifungal activity against Sclerotinia sclerotiorum at 0.00034 uM/disk after 96 hrs. Type of data set: functional. Conditions: read-out: IZ.
Data set [2] relates to Sclerotinia sclerotiorum. Briefly: Antifungal activity against Sclerotinia sclerotiorum at 0.00011 uM/disk after 96 hrs. Type of data set: functional. The settings on record: read-out: IZ.

Active and inactive are the calls of the source. The rule behind the calls is not given here.

Turning to `CC1=C[C@H]2C[C@H](C)[C@@H](O)[C@H](C)[C@H]2[C@H](/C=C(C)/C=C(C)\C=C\C(=O)O)/C1=C\C(=O)CO`, the result in the data set on Aspergillus niger, in the data set on Candida albicans, in the data set on Fusarium oxysporum, in the data set on Helminthosporium, in the data set on Aspergillus flavus and with Geotrichum candidum was inactive. Besides, the Activity result with Artemia is recorded as “Non-toxic”. The zone of inhibition at 0.00034 µM with Sclerotinia sclerotiorum [1] amounted to 16 mm.

For the molecule `CC1=C[C@H]2C[C@H](C)[C@@H](O)[C@H](C)[C@H]2[C@H](/C=C(C)/C=C(C)/C=C/C(=O)O)/C1=C\C(=O)CO`, the outcome with Aspergillus niger, in the data set on Candida albicans, with Fusarium oxysporum, in the data set with Helminthosporium, in the data set with Aspergillus flavus and with Geotrichum candidum was inactive. Besides, the zone of inhibition at 0.00011 µM in the data set with Sclerotinia sclerotiorum [2] stood at 17 mm. Besides, the Activity result in the data set with Artemia is given as “Non-toxic”.
